Laboratory results published in patent US8003801B2 (The Scripps Research Institute, priority 2005, dated 2011).
Read-outs that look alike come from different tables or passages of the source.

What was measured:
[1] = tested on: 1A9 human ovarian cancer cell line; assay: 72 hour growth-inhibition (cytotoxicity) assay, 1A9 cells; type: cell-based
[2] = tested on: 1A9/PTX10, Taxol-resistant 1A9 cell line (β270 Phe→Val); assay: 72 hour growth-inhibition (cytotoxicity) assay, 1A9/PTX10 cells; type: cell-based, human; details: for RRp (relative resistance), 1A9/PTX10: IC50 of 1A9/PTX10 divided by IC50 of the parental cell line 1A9
[3] = tested on: 1A9/A8, EpoA-resistant 1A9 cell line (β274 Thr→Ile); assay: 72 hour growth-inhibition (cytotoxicity) assay, 1A9/A8 cells; type: cell-based, human; details: for RRp (relative resistance), 1A9/A8: IC50 of 1A9/A8 divided by IC50 of the parental cell line
[4] = tested on: A2780/AD10, drug-resistant clone of human ovarian carcinoma A2780 overexpressing P-glycoprotein; assay: 72 hour growth-inhibition (cytotoxicity) assay, A2780/AD10 cells; type: cell-based; details: for IC50: 72 hour growth inhibition, sulforhodamine-B staining, mean of 3-5 experiments ± SEM; for RRp (relative resistance), A2780/AD10: IC50 of A2780/AD10 divided by IC50 of the parental cell line
[5] = tested on: KB-31 human epidermoid cancer cell line; assay: 72 hour growth-inhibition (cytotoxicity) assay, KB-31 cells; type: cell-based; details: Homo sapiens
[6] = tested on: KB-8511, Taxol-resistant (Pgp-overexpression) KB cell line; assay: 72 hour growth-inhibition (cytotoxicity) assay, KB-8511 cells
Procedure: In addition, further cytotoxicity studies were carried out using a pair of drug-sensitive parental human epidermoid carcinoma cells (KB-31) and its Taxol™-resistant Pgp-overexpressing subline (KB-5811).

[7] = Homo sapiens, 1A9, 72 hour growth inhibition, sulforhodamine-B staining, mean of 3-5 independent experiments ± standard error of the mean, read-out: 1A9 IC50
[8] = Homo sapiens, 1A9/ptx-10, 72 hour growth inhibition, sulforhodamine-B staining, mean of 3-5 experiments ± SEM, read-out: 1A9/PTX10 IC50
[9] = Homo sapiens, 1A9, 72 hour growth inhibition, sulforhodamine-B staining, mean of 3-5 experiments ± SEM, read-out: 1A9/A8 IC50
[10] = KB 3-1, 72 h, read-out: KB-31 IC50
[11] = read-out: KB-8511 IC50, 72 hour growth inhibition, methylene blue staining, mean of 3-5 experiments ± SEM
[12] = ratio of IC50 of EpoB to IC50 of the tested compound in the concurrent assay

CSc1nc(/C=C(\C)[C@@H]2C[C@@H]3O[C@]3(C)CCC[C@H](C)[C@H](O)[C@@H](C)C(=O)C(C)(C)[C@@H](O)CC(=O)O2)c(SC)n1C [Compound 13]
IC50 [1, 7]: > 750 nM
IC50 [2, 8]: > 750 nM
IC50 [3, 9]: 574 nM
IC50 ([4]; Homo sapiens, A2780): 1.3 ± 0.3 nM
RRp (relative resistance), A2780/AD10 [4]: 2.6
IC50 [5, 10]: 240 ± 34 nM
IC50 [6, 11]: 247 ± 47.9 nM

C/C(=C\c1csc(C)n1)[C@@H]1C[C@@H]2O[C@@H]2CCC[C@H](C)[C@H](O)[C@@H](C)C(=O)C(C)(C)[C@@H](O)CC(=O)O1 [EpoA, reference compound]
IC50 ([1]; 72 hour growth inhibition, sulforhodamine-B staining, mean of 3-5 independent experiments ± standard error of the mean, read-out: 1A9 IC50): 2.4 ± 2.6 nM
IC50 ([2]; 72 hour growth inhibition, sulforhodamine-B staining, mean of 3-5 experiments ± SEM, read-out: 1A9/PTX10 IC50): 5.1 ± 2.6 nM
RRp (relative resistance), 1A9/PTX10 [2]: 2.1
IC50 ([3]; 72 hour growth inhibition, sulforhodamine-B staining, mean of 3-5 experiments ± SEM, read-out: 1A9/A8 IC50): 41 ± 7.3 nM
RRp (relative resistance), 1A9/A8 [3]: 17.1
IC50 [4]: 25.4 ± 8.6 nM
RRp (relative resistance), A2780/AD10 [4]: 25.7

CC(=O)O[C@@]12CO[C@@H]1C[C@H](O)[C@@]1(C)C(=O)[C@H](O)C3=C(C)[C@@H](OC(=O)[C@H](O)[C@@H](NC(=O)OC(C)(C)C)c4ccccc4)C[C@@](O)([C@@H](OC(=O)c4ccccc4)[C@H]21)C3(C)C [Taxotere ™, reference compound]
IC50 [1, 7]: 1.5 ± 1.1 nM
IC50 [2, 8]: 32 ± 6.8 nM
RRp (relative resistance), 1A9/PTX10 [2]: 21.3
IC50 [3, 9]: 0.8 ± 0.2 nM
RRp (relative resistance), 1A9/A8 [3]: 0.5
IC50 ([4]; Homo sapiens, A2780): 29.4 ± 5.4 nM
RRp (relative resistance), A2780/AD10 [4]: 12.3

C/C(=C\c1nc(Br)c(Br)n1C)[C@@H]1C[C@@H]2O[C@]2(C)CCC[C@H](C)[C@H](O)[C@@H](C)C(=O)C(C)(C)[C@@H](O)CC(=O)O1 [Compound 12]
IC50 [1, 7]: > 750 nM
IC50 [2, 8]: > 750 nM
IC50 [3, 9]: > 750 nM
IC50 ([4]; Homo sapiens, A2780): 574 nM
IC50 [5, 10]: > 1000 nM
IC50 [6, 11]: > 1000 nM

C/C(=C\c1cn(C)cn1)[C@@H]1C[C@@H]2O[C@]2(C)CCC[C@H](C)[C@H](O)[C@@H](C)C(=O)C(C)(C)[C@@H](O)CC(=O)O1 [Compound 11]
IC50 [1, 7]: 181 ± 81.6 nM
IC50 [2, 8]: > 750 nM
IC50 [3, 9]: 150 nM
RRp (relative resistance), 1A9/A8 [3]: 0.8
IC50 ([4]; Homo sapiens, A2780): > 750 nM
IC50 [5, 10]: 277 ± 122 nM
IC50 [6, 11]: > 1000 nM

CSc1nc(/C=C(\C)[C@@H]2C[C@@H]3O[C@]3(C)CCC[C@H](C)[C@H](O)[C@@H](C)C(=O)C(C)(C)[C@@H](O)CC(=O)O2)nc2c1ncn2C [Compound 19]
IC50 [1, 7]: 1 ± 0.8 nM
IC50 [2, 8]: 2 ± 1.5 nM
RRp (relative resistance), 1A9/PTX10 [2]: 2.0
IC50 [3, 9]: 2.8 ± 2.2 nM
RRp (relative resistance), 1A9/A8 [3]: 2.8
IC50 ([4]; Homo sapiens, A2780): 67 ± 9.8 nM
RRp (relative resistance), A2780/AD10 [4]: 16.8
IC50 [5, 10]: 0.36 ± 0.17 nM
IC50 [6, 11]: 6.21 ± 0.86 nM

C/C(=C\c1c(I)ncn1C)[C@@H]1C[C@@H]2O[C@]2(C)CCC[C@H](C)[C@H](O)[C@@H](C)C(=O)C(C)(C)[C@@H](O)CC(=O)O1 [Compound 10]
IC50 [1, 7]: > 750 nM
IC50 [2, 8]: > 750 nM
IC50 [3, 9]: > 750 nM
IC50 ([4]; Homo sapiens, A2780): 1070 nM
RRp (relative resistance), A2780/AD10 [4]: 5.9
IC50 [5, 10]: > 1000 nM
IC50 [6, 11]: > 1000 nM

CSc1nc(/C=C(\C)[C@@H]2C[C@@H]3C[C@]3(C)CCC[C@H](C)[C@H](O)[C@@H](C)C(=O)C(C)(C)[C@@H](O)CC(=O)O2)cs1 [Compound 4, reference compound]
IC50 ([1]; Homo sapiens, 1A9, Table 2, tested epothilone, unit from Table 1A note a, read-out: IC50, 1A9 (Table 2)): 0.1 nM
RAEpoB (relative activity), 1A9 [1, 12]: 6.0
IC50 ([2]; Homo sapiens, 1A9/ptx-10, Table 2, tested epothilone, unit from Table 1A note a, read-out: IC50, 1A9/PTX10 (Table 2)): 0.7 nM
RAEpoB (relative activity), 1A9/PTX10 [2, 12]: 4.4
IC50 ([3]; Homo sapiens, 1A9, Table 2, tested epothilone, unit from Table 1A note a, read-out: IC50, 1A9/A8 (Table 2)): 2.4 nM
RAEpoB (relative activity), 1A9/A8 [3, 12]: 2.7
IC50 ([5]; KB 3-1, read-out: IC50, KB-31 (Table 2)): 0.2 nM
IC50 ([6]; read-out: IC50, KB-5811 (Table 2), Table 2, tested epothilone, cell line KB-5811, unit from Table 1A note a): 0.12 nM

C/C(=C\c1nc(Cl)c2ncn(C)c2n1)[C@@H]1C[C@@H]2O[C@]2(C)CCC[C@H](C)[C@H](O)[C@@H](C)C(=O)C(C)(C)[C@@H](O)CC(=O)O1 [Compound 17]
IC50 [1, 7]: 3.7 ± 1.5 nM
IC50 [2, 8]: 13.6 ± 7.3 nM
RRp (relative resistance), 1A9/PTX10 [2]: 3.7
IC50 [3, 9]: 4 ± 2.5 nM
RRp (relative resistance), 1A9/A8 [3]: 1.1
IC50 ([4]; Homo sapiens, A2780): 46.3 ± 33.2 nM
RRp (relative resistance), A2780/AD10 [4]: 12.5
IC50 [5, 10]: 1.62 ± 0.22 nM
IC50 [6, 11]: 20.2 ± 2.14 nM

CC(=O)O[C@H]1C(=O)[C@@]2(C)[C@H]([C@H](OC(=O)c3ccccc3)[C@]3(O)C[C@H](OC(=O)[C@H](O)[C@@H](NC(=O)c4ccccc4)c4ccccc4)C(C)=C1C3(C)C)[C@]1(OC(C)=O)CO[C@@H]1C[C@@H]2O [Taxol ™, reference compound]
IC50 ([4]; Homo sapiens, A2780): > 150 nM
IC50 ([5]; KB 3-1, 72 hour growth inhibition, methylene blue staining, mean of 3-5 experiments ± SEM, read-out: KB-31 IC50): 6.08 ± 1.19 nM
IC50 [6, 11]: 1130 ± 74 nM
